Laboratory results published in ChEMBL document CHEMBL1153190, “Novel neofusapyrones isolated from Verticillium dahliae as potent antifungal substances” (Bioorg Med Chem Lett, 2010).
The source made the active and inactive calls. No cut-off for these calls is given here.

Legend:
Bipolaris oryzae = experiment: Antifungal activity against Cochliobolus miyabeanus at 100 ng/ml; assay type: functional, organism-based
HeLa = experiment: Cytotoxicity against human HeLa cells; assay type: cell-based
HepG2 = experiment: Cytotoxicity against human HepG2 cells; assay type: cell-based
Staphylococcus aureus = experiment: Antibacterial activity against methicillin-resistant Staphylococcus aureus Isolate 87-7927 at 10 ug; assay type: functional, organism-based

Compound	Activity (Bipolaris oryzae)	Activity (HeLa)	Activity (HepG2)	Activity (Staphylococcus aureus)
CCCCCCC(C)C/C(C)=C\C(C)/C=C(C)/C=C/C(O)C(C)c1cc(O)c([C@@H]2O[C@H](CO)C[C@H](O)[C@H]2O)c(=O)o1 (some centres not stated)	Active	Non-toxic	Non-toxic	–
CCCCCCC(C)C/C(C)=C\C(C)/C=C(C)/C=C/C(O)C(C)(C)c1cc(O)c([C@@H]2O[C@H](CO)C[C@H](O)[C@H]2O)c(=O)o1 (some centres not stated) [DEOXYNEOFUSAPYRONE]	Active	Non-toxic	Non-toxic	Active
